Assay results as given in patent US11174253B2, “Compound and pharmaceutical composition containing the same” (ALPHALA CO., LTD., priority 2017, dated 2021).

Assays:
Format in all cases: cell-based
[1] = test system: SW480 colon adenocarcinoma cell line; assay: MTS cell viability assay (NCI-60 methodology), GI50/LC50, SW480; settings: Homo sapiens, 48 h, SW480 cells, 2 days incubation with compound
Method in brief: (§1)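 Cells were plated 24 h before treatment, and a time-zero plate was read by MTS. Five 2-fold dilutions plus DMSO were then added for 48 h, and viability was measured by MTS. GI50 is from [(Ti−Tz)/(C−Tz)]×100=50 and LC50 from [(Ti−Tz)/Tz]×100=−50.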

[2] = test system: Hep3B hepatocellular carcinoma cell line; assay: MTS cell viability assay (NCI-60 methodology), GI50/LC50, Hep3B; settings: Homo sapiens, 48 h, Hep3B cells, 2 days incubation with compound
Method in brief: as §1

[3] = test system: hepatocellular carcinoma cell line Hep3B; assay: Growth inhibition of Hep3B cells, 48 hr treatment, Hoechst 33342 nucleus count (GE InCell 2200); settings: Homo sapiens
Method in brief: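 Compound exposure lasted 48 hr at 37° C, 5% CO2. Surviving nuclei were counted after Hoechst 33342 staining, and survival was expressed as the treated/non-treated cell number ratio, including the ratio at 10 μM compound.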

[4] = test system: NCI-H460 human lung cancer cell line; assay: MTS cell viability assay (NCI-60 methodology), GI50/LC50, NCI-H460; settings: 48 h, NCI-H460 cells, 2 days incubation with compound
Method in brief: as §1

[5] = Table 1, ratio of number of tumor cells treated with 10 μM compound to non-treated cells
[6] = Table 5, ratio of number of tumor cells treated with 10 μM compound to non-treated cells
[7] = Table 6, ratio of number of tumor cells treated with 10 μM compound to non-treated cells

SMILES	GI50 [1]	LC50 (NCI-60 lethal concentration, 50% net cell loss vs time zero) [1]	GI50 [2]	LC50 [2]	viability at 10 µM [3, 5]	GI50 [4]	LC50 (concentration giving 50% net cell loss versus time zero, NCI-60 definition) [4]	viability at 10 µM [3, 6]	viability at 10 µM [3, 7]
CCOc1ccc(-c2nnc(NC(=O)Cc3ccc4nc(N)sc4c3)s2)cc1 [Compound 1-2, 2-(2-aminobenzo[d]thiazol-6-yl)-N-(5-(4-ethoxyphenyl)-1,3,4-thiadiazol-2-yl)acetamide]	3.55 µM	8.93 µM	0.16 µM	0.48 µM	61%	0.86 µM	1.24 µM		
CCCCOc1cc(OCC)ccc1-c1nnc(NC(=O)Cc2ccc3nc(N)sc3c2)s1 [Compound 1-23, 2-(2-aminobenzo[d]thiazol-6-yl)-N-(5-(2-butoxy-4-ethoxyphenyl)-1,3,4-thiadiazol-2-yl)acetamide]	0.52 µM	0.52 µM	0.48 µM	0.48 µM	71%	0.58 µM	0.58 µM		
CCOc1cc(OCC)c(-c2nnc(N(C)C(=O)Cc3ccc4nc(N)sc4c3)s2)cn1 [Compound 1-37, 2-(2-aminobenzo[d]thiazol-6-yl)-N-(5-(4,6-diethoxypyridin-3-yl)-1,3,4-thiadiazol-2-yl)-N-methylacetamide]	1.26 µM		0.84 µM	1.24 µM	47%	1.35 µM			
CCCOc1ccc(-c2nc(NC(=O)c3ccc([N+](=O)[O-])o3)sc2Oc2ccccc2)cc1 [Compound 5-48, 5-nitro-N-(5-phenoxy-4-(4-propoxyphenyl)thiazol-2-yl)furan-2-carboxamide]	1.81 µM		5.22 µM	9.41 µM		1.4 µM		37%	
CC(C)(C)c1ccc(-c2nc(NC(=O)c3ccc([N+](=O)[O-])s3)sc2-c2ccc(Cl)cc2)cc1 [Compound 6-59, N-(4-(4-(tert-butyl)phenyl)-5-(4-chlorophenyl)thiazol-2-yl)-5-nitrothiophene-2-carboxamide]	0.75 µM	1.62 µM	0.6 µM	0.64 µM		0.7 µM	1.28 µM		27%
CCCOc1ccc(-c2nc(NC(=O)c3ccc([N+](=O)[O-])s3)sc2Oc2ccc(C#N)cc2)cc1 [Compound 5-39, N-(5-(4-cyanophenoxy)-4-(4-propoxyphenyl)thiazol-2-yl)-5-nitrothiophene-2-carboxamide]	1.49 µM	6.54 µM	0.89 µM	5.53 µM		0.23 µM	1.16 µM	56%	
CCOc1ccc(-c2nc(NC(=O)c3ccc([N+](=O)[O-])s3)sc2Cc2ccccc2)cc1 [Compound 6-34, N-(5-benzyl-4-(4-ethoxyphenyl)thiazol-2-yl)-5-nitrothiophene-2-carboxamide]	2.51 µM		1.01 µM	7.53 µM		1.4 µM			44%
CCCOc1ccc(-c2nc(NC(=O)c3ccc([N+](=O)[O-])s3)sc2-c2ccc(F)cc2)cc1 [Compound 6-16, N-(5-(4-fluorophenyl)-4-(4-propoxyphenyl)thiazol-2-yl)-5-nitrothiophene-2-carboxamide]	1.89 µM	2.79 µM	1.24 µM	1.83 µM		0.86 µM	1.75 µM		59%
CC(C)(C)c1ccc(-c2nc(NC(=O)c3ccc([N+](=O)[O-])s3)sc2Oc2ccc(C(F)(F)F)cc2)cc1 [Compound 5-74, N-(4-(4-(tert-butyl)phenyl)-5-(4-(trifluoromethyl)phenoxy)thiazol-2-yl)-5-nitrothiophene-2-carboxamide]	0.69 µM	1.29 µM	1.16 µM	1.68 µM		0.72 µM	1.3 µM	33%	
O=C(Nc1nc(-c2ccc(Br)cc2)c(Oc2ccc(C(F)(F)F)cc2)s1)c1ccc([N+](=O)[O-])s1 [Compound 5-7, N-(4-(4-bromophenyl)-5-(4-(trifluoromethyl)phenoxy)thiazol-2-yl)-5-nitrothiophene-2-carboxamide]	0.32 µM	2.8 µM	0.63 µM	1.23 µM		0.85 µM	1.85 µM	31%	
CC(C)(C)c1ccc(-c2nc(NC(=O)c3ccc([N+](=O)[O-])s3)sc2Oc2cccc(F)c2)cc1 [Compound 5-22, N-(4-(4-(tert-butyl)phenyl)-5-(3-fluorophenoxy)thiazol-2-yl)-5-nitrothiophene-2-carboxamide]	2.5 µM	4.27 µM	1.43 µM	4.03 µM		2.09 µM	4.53 µM	30%	
CCC(C)(C)c1ccc(-c2nc(NC(=O)c3ccc([N+](=O)[O-])s3)sc2Oc2ccc(F)cc2)cc1 [Compound 5-63, N-(5-(4-fluorophenoxy)-4-(4-(tert-pentyl)phenyl)thiazol-2-yl)-5-nitrothiophene-2-carboxamide]	0.88 µM	1.85 µM	0.43 µM	0.95 µM		0.68 µM	1.11 µM	37%	
CCCOc1ccc(-c2nc(NC(=O)c3ccc([N+](=O)[O-])s3)sc2Oc2ccc(F)cc2)cc1 [Compound 5-30, N-(5-(4-fluorophenoxy)-4-(4-propoxyphenyl)thiazol-2-yl)-5-nitrothiophene-2-carboxamide]	0.53 µM	2.82 µM	0.92 µM	2.23 µM		0.7 µM	2.15 µM	40%	
CCCOc1ccc(-c2nc(NC(=O)c3ccc([N+](=O)[O-])s3)sc2Oc2ccc(Br)cc2)cc1 [Compound 5-27, N-(5-(4-bromophenoxy)-4-(4-propoxyphenyl)thiazol-2-yl)-5-nitrothiophene-2-carboxamide]	1.23 µM	4.87 µM	0.82 µM	1.51 µM		1.96 µM	4.74 µM	31%	
CCOc1ccc(-c2nc(NC(=O)c3ccc([N+](=O)[O-])s3)sc2Oc2ccc(C(C)(C)C)cc2)cc1 [Compound 5-29, N-(5-(4-(tert-butyl)phenoxy)-4-(4-ethoxyphenyl)thiazol-2-yl)-5-nitrothiophene-2-carboxamide]	3.34 µM	9.95 µM	1.84 µM	3.86 µM		3.24 µM	9.12 µM	42%	
CCCOc1ccc(-c2nc(NC(=O)c3ccc([N+](=O)[O-])s3)sc2Oc2ccc(C(F)(F)F)cc2)cc1 [Compound 5-26, 5-nitro-N-(4-(4-propoxyphenyl)-5-(4-(trifluoromethyl)phenoxy)thiazol-2-yl)thiophene-2-carboxamide]	1.05 µM	3.44 µM	0.83 µM	1.18 µM		1.15 µM	3.2 µM	24%	
O=C(Nc1nc(-c2ccc(C(F)(F)F)cc2)c(Oc2ccccc2)s1)c1ccc([N+](=O)[O-])s1 [Compound 5-81, 5-nitro-N-(5-phenoxy-4-(4-(trifluoromethyl)phenyl)thiazol-2-yl)thiophene-2-carboxamide]	2.47 µM	8.6 µM	0.98 µM	4.23 µM		0.81 µM	2.11 µM	30%	
CCCCOc1ccc(-c2nc(NC(=O)c3ccc([N+](=O)[O-])s3)sc2-c2ccc(F)cc2)cc1 [Compound 6-18, N-(4-(4-butoxyphenyl)-5-(4-fluorophenyl)thiazol-2-yl)-5-nitrothiophene-2-carboxamide]	6.49 µM		1.38 µM	2.17 µM		2.01 µM	8.26 µM		26%
CC(C)(C)c1ccc(-c2nc(NC(=O)c3ccc([N+](=O)[O-])s3)sc2-c2ccc(F)c(F)c2)cc1 [Compound 6-46, N-(4-(4-(tert-butyl)phenyl)-5-(3,4-difluorophenyl)thiazol-2-yl)-5-nitrothiophene-2-carboxamide]	0.68 µM	1.33 µM	0.59 µM	1.1 µM		0.63 µM	0.9 µM		31%
